# Tests used:
# Format in all cases: physicochemical
# [1] = Drug integrity post processing by HPLC
# Experimental: Drug integrity post processing was assessed by High Pressure Liquid Chromatography (“HPLC”) (Hewlett Packard Series 1100 HPLC). […] For paclitaxel, the chromatographic conditions included a Nucleosil column (5:m, C18, 100A, 250×4.6 mm), a mobile phase of 2 mM H3PO4/Acetonitrile (2:3) at a flow rate of 1.5 mL/min, UV detection at 227 nm, and a run time of 25 min.
# [2] = Density of dry powder by Transaxial Pressure (TAP), Micromeritics GeoPyc 1360; conditions: consolidation force of 8 Newtons
# [3] = Particle size and surface area of drug particles in wetted matrices, Coulter Multisizer II; conditions: reconstituted in aqueous media; electrolyte pre-saturated with drug
# Experimental: Particle size analysis was performed using the Coulter Multisizer II with a 50 micron aperture using siphon mode. Electrolyte was pre-saturated with the drug of interest, and filtered through a 0.22 micron filter prior to addition of lots for analysis to ensure that no portion of the drug within the lot would dissolve during the analysis.
Purity (drug integrity post processing) [1] [%],Density [2] [g/mL],Size (mean particle size of drug particles) [3] [microns],Surface Area (total surface area of drug particles) [3],Compound
95.7,0.80,2.42,0.88 m^2/mL of microparticles,"COC1=CC(=O)C[C@@H](C)[C@]12Oc1c(Cl)c(OC)cc(OC)c1C2=O [Griseofulvin Bulk, griseofulvin]"
–,–,2.89,0.66 m^2/mL of microparticles,"COc1ccc2cc([C@H](C)C(=O)O)ccc2c1 [Naproxen Bulk, naproxen]"
100,–,–,–,"CC(=O)O[C@H]1C(=O)[C@@]2(C)[C@H]([C@H](OC(=O)c3ccccc3)[C@]3(O)C[C@H](OC(=O)[C@H](O)[C@@H](NC(=O)c4ccccc4)c4ccccc4)C(C)=C1C3(C)C)[C@]1(OC(C)=O)CO[C@@H]1C[C@@H]2O [Paclitaxel Bulk, paclitaxel]"
100,0.68,2.07,1.43 m^2/mL of microparticles,"C[C@]12C=CC(=O)C=C1CC[C@@H]1[C@@H]2C(=O)C[C@@]2(C)[C@H]1CC[C@]2(O)C(=O)CO [Prednisone Bulk, prednisone]"

# Source: US8821938B2, “Porous drug matrices and methods of manufacture thereof” (Acusphere, Inc., priority 1999, dated 2014)
